Experimental data from article PMC10803289, “Transport and inhibition mechanism of the human SGLT2–MAP17 glucose transporter” (Nature Structural & Molecular Biology, 2023).
Where a chain is given by its changes, count along the chain named. Values joined by “and” are separate entries in the source; they are usually repeats but may differ in a detail not shown here. Equal entries are not always repeated.

Experiments:
[1] = biological target: T1, hSGLT2 F453A (Homo sapiens, UniProt P31639, F453A); experiment: SGLT2 inhibitor-binding assay (AS-MS), crude membrane, F453A mutant; design: expressed in transfected cells; host or cells: Expi293 cells, crude membrane fraction; settings: 30 nM canagliflozin, replicates
T1 sequence (P31639 1-672 F453A): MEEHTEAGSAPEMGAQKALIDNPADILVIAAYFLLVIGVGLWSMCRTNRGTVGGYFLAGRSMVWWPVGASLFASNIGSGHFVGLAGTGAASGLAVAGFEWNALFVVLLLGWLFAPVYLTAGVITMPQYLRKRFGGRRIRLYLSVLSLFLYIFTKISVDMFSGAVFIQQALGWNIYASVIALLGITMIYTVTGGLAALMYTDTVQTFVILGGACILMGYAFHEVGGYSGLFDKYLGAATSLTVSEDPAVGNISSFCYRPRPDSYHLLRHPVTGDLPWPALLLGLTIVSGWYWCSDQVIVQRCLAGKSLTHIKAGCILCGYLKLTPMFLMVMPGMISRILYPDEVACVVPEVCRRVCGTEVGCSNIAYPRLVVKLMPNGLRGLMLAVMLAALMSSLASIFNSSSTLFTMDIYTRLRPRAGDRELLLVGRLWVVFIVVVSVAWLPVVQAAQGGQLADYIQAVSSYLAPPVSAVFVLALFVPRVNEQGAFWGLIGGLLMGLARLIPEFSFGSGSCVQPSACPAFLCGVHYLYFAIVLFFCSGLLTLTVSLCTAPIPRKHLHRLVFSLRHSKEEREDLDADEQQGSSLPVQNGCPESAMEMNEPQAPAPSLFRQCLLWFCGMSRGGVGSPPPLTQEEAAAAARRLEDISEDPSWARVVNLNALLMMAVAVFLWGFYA
T1 sequence (Q13113 1-114 partner): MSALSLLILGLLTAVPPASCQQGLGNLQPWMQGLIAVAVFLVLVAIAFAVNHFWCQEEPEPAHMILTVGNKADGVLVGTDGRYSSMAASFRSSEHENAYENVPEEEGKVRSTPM
Source text: hSGLT2 complementary DNA and human MAP17 cDNA were synthesized and codon-optimized for expression in human cell lines. Both cDNAs were cloned into the pcDNA3.4 vector. The hSGLT2 sequence was fused with an N-terminal signal sequence from human trypsinogen 1, a His10 tag, and sfGFP, followed by a human rhinovirus 3C protease (HRV3C protease) recognition site. Point mutations were introduced into this construct using site-directed mutagenesis. These plasmids were utilized for all experimental procedures conducted in this study.
To examine the inhibition of binding to the crude membrane, mammalian Expi293 cells were co-transfected with the hMAP17 and hSGLT2 plasmids, as described. […] The extract solution from the filter plate was diluted with water containing candesartan as an internal standard, and the SGLT2 inhibitor concentration was quantified via LC–MS/MS.
Nonspecific binding was measured using the crude membrane of nontransfected Expi293 cells. Specific binding was calculated by subtracting nonspecific binding from the binding of hSGLT2-expressing cells. Specific binding was normalized to hSGLT2 protein expression levels, measured via FSEC. The equilibrium dissociation constant (Kd) and maximum number of binding sites (Bmax) were calculated via nonlinear regression in GraphPad Prism 8.4.3. […]

[2] = biological target: T2, wild-type hSGLT2 (membrane fraction of hSGLT2 and MAP17 expressing cells) (Homo sapiens, UniProt P31639); experiment: SGLT2 inhibitor-binding assay via affinity selection–mass spectrometry, crude membrane, WT
T2 construct: expressed in transfected cells; host or cells: Expi293 cells, crude membrane fraction
T2 sequence (P31639 1-672): T1 sequence (P31639 1-672 F453A) with A453F
T2 sequence (Q13113 1-114 partner): T1 sequence (Q13113 1-114 partner)
Protocol: To examine the inhibition of binding to the crude membrane, mammalian Expi293 cells were co-transfected with the hMAP17 and hSGLT2 plasmids, as described. The cells were collected and disrupted by sonication in a hypotonic buffer (50 mM HEPES–NaOH (pH 7.5), 10 mM KCl and protease inhibitor cocktail) or Na^+-free hypotonic buffer (50 mM Tris–HCl (pH 7.5), 10 mM KCl and protease inhibitor cocktail). The cell debris were removed by centrifugation (2,000g, 5 min, 4 °C). The membrane fraction was collected by ultracentrifugation (112,000g, 30 min, 4 °C) and stored at −80 °C before use. The crude membrane (250 μg per sample) was incubated with SGLT2 inhibitor in an assay buffer (100 mM NaCl and 10 mM HEPES/Tris, pH 7.4) or Na^+-free assay buffer (100 mM choline chloride and 10 mM HEPES/Tris, pH 7.4) at room temperature for 2 h. Reactions were terminated by filtration through a GF/C filter plate (Corning) presoaked in assay buffer containing 0.1% bovine serum albumin. The sample in the filter plate was washed three times with the assay buffer and eluted with acetonitrile: water (80:20, v/v). The extract solution from the filter plate was diluted with water containing candesartan as an internal standard, and the SGLT2 inhibitor concentration was quantified via LC–MS/MS.
Nonspecific binding was measured using the crude membrane of nontransfected Expi293 cells. Specific binding was calculated by subtracting nonspecific binding from the binding of hSGLT2-expressing cells. Specific binding was normalized to hSGLT2 protein expression levels, measured via FSEC. The equilibrium dissociation constant (Kd) and maximum number of binding sites (Bmax) were calculated via nonlinear regression in GraphPad Prism 8.4.3. The specific binding of the hSGLT2 mutants was normalized to the Bmax of WT hSGLT2.
The concentrations of the extract solution from the filter plate and of the cell lysate were quantified using a tandem mass spectrometry QTRAP6500 System (SCIEX) coupled with an ACQUITY UPLC system (Waters) using the internal standard method. Mobile phases A and B used 10 mM of ammonium bicarbonate and acetonitrile, respectively.

## Cc1ccc([C@@H]2O[C@H](CO)[C@@H](O)[C@H](O)[C@H]2O)cc1Cc1ccc(-c2ccc(F)cc2)s1 [Canagliflozin]
[1]
  Canagliflozin binding (% of WT): 4.952 % of WT and 11.6565 % of WT and 16.2768 % of WT
[2]; 30 nM canagliflozin, WT, replicates
  Canagliflozin binding (% of WT): 95.0024 % of WT and 98.5721 % of WT and 106.426 % of WT
[2]; 30 nM canagliflozin, hSGLT2 membrane
  Canagliflozin binding (% of hSGLT2): 85.124 % of hSGLT2 and 96.4187 % of hSGLT2 and 118.457 % of hSGLT2
[2]; Na(+), mean ± SEM n=3
  Bmax: 1.91 ± 0.16 pmol/mg-protein
  Kd: 94 ± 21.8 nM
[2]; Na(-), mean ± SEM n=3
  Bmax: 1.33 ± 0.12 pmol/mg-protein
  Kd: 109 ± 25.4 nM
[2]; Sodium 0 mM, replicates
  Canagliflozin binding: 0.5239 pmol/mg-protein and 0.5745 pmol/mg-protein and 0.6364 pmol/mg-protein
[2]; Sodium 1 mM, replicates
  Canagliflozin binding: 0.4659 pmol/mg-protein and 0.5424 pmol/mg-protein and 0.6685 pmol/mg-protein
[2]; Sodium 10 mM, replicates
  Canagliflozin binding: 0.8906 pmol/mg-protein and 0.8030 pmol/mg-protein and 0.9338 pmol/mg-protein
[2]; Sodium 100 mM, replicates
  Canagliflozin binding: 0.9992 pmol/mg-protein and 1.5850 pmol/mg-protein and 1.3270 pmol/mg-protein
[2]; absence vs presence of Na+
  Bmax in the absence versus the presence of Na+ (in words): partially lower
[2]; in the presence of sodium, rounded value quoted by the referee in peer review file
  Kd: ~100 nM
